# Measurements: patent publication US20100204203A1, “Chemical Compounds 637: Pyridopyrimidinediones as PDE4 Inhibitors” (priority 2007, published 2010)
# Biological target: T1, recombinant Human Phosphodiesterase B2 (PDE4B2) (Homo sapiens, UniProt Q07343)
# Assay: Human Phosphodiesterase B2 Alpha Screen Assay
# Assay type: biochemical
# Conditions: Alpha Screen cAMP kit; 15 min preincubation, 60 min reaction at room temperature; Xlfit model 205; read-out: PDE4B2 pIC50 (converted)
# Description: Human Phosphodiesterase B2 Alpha Screen Assay
# The assay uses recombinant Human Phosphodiesterase B2 (PDE4B2) produced in house (PrAZL0133), stored at −20° C. The substrate uses cAMP, part of the Alpha Screen cAMP kit (Perkin Elmer, Cat# 6760625M), stored at 4° C. The Alpha Screen kit also includes biotinylated cAMP, acceptor and donor beads.
# The assay additions were as follows: Test compounds and controls were added to white 384-well flat-bottom plates (Greiner, Cat#781075), 0.2 μl in 100% DMSO, followed by 10 μl PDE4B2 in reaction buffer. The reaction buffer constitution was: 50 mM Tris (pH 7.5), 8.3 mM MgCl2, 1.7 mM EGTA and 0.01% (w/v) Brij®35. The enzyme and the compounds were incubated at room temperature for 15 minutes. Then 10 μl cAMP in reaction buffer was added. The assay was stopped after 60 minutes incubation at room temperature by adding 10 μl acceptor beads in detection buffer with 40 mM EDTA. The detection buffer constitution was: 5 mM Tris (pH 7.5), 0.1% (w/v) BSA and 0.1% (v/v) Tween 20. This addition followed by an addition of 10 μl donor beads in detection buffer, with biotinylated cAMP. The plates were then incubated, dark at room temperature, for 5 hours followed by measurement on a Fusion™-α analyser. pIC50 values (presented in Table 14) were determined using Xlfit curve fitting using model 205.
# T1 sequence (Q07343 1-564 isoform Q07343-2): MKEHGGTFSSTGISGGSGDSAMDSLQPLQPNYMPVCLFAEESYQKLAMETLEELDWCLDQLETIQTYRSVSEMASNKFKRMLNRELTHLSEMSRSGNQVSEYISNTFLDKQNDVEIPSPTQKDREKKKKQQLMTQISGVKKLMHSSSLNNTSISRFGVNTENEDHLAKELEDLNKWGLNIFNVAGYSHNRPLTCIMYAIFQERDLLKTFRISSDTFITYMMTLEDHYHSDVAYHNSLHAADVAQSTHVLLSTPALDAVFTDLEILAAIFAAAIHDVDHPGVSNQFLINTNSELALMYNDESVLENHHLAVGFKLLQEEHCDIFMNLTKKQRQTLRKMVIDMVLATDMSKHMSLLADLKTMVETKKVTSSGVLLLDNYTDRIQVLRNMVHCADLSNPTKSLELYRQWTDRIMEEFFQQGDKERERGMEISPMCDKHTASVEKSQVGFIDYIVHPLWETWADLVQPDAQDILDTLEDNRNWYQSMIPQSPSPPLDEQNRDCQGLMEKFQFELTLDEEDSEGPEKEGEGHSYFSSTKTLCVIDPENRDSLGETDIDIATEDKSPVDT
row,Structure (SMILES),IC50 [nM]
1,"O=C(N[C@H]1CC[C@@H](n2c(=O)c3cc(F)cnc3n(C3CCCC3)c2=O)CC1)c1cn2ccccc2n1 [Example 7, N-[cis-4-(1-cyclopentyl-6-fluoro-2,4-dioxo-1,4-dihydropyrido[2,3-d]pyrimidin-3(2H)-yl)cyclohexyl]imidazo[1,2-a]pyridine-2-carboxamide]",0.631
2,"O=C(N[C@H]1CC[C@@H](n2c(=O)c3cc(F)cnc3n(Cc3ccc(F)cc3)c2=O)CC1)c1cn2ccccc2n1 [Example 9, N-{cis-4-[6-fluoro-1-(4-fluorobenzyl)-2,4-dioxo-1,4-dihydropyrido[2,3-d]pyrimidin-3(2H)-yl]cyclohexyl}imidazo[1,2-a]pyridine-2-carboxamide]",3.16

# Biological target: T1, recombinant Human Phosphodiesterase B2 (PDE4B2)
# Assay: Human Phosphodiesterase B2 Radiometric Assay (yttrium silicate SPA beads, [3H]cyclic AMP)
# Assay type: biochemical
# Conditions: recombinant human PDE4B2, radiometric SPA assay, 8 nM [3H]cyclic AMP; read-out: PDE4B2 pIC50 (converted)
# Method in brief: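 Compounds were preincubated 30 min at 30 °C with 0.1 mg/mL PDE4B2 in 50 mM HEPES pH 7.5, 8.3 mM MgCl2, 1.7 mM EGTA, 0.01% Brij 35. Then 8 nM [3H]cAMP was added for 20 min, stopped with yttrium silicate SPA beads plus 18 mM ZnSO4 capturing product 5′AMP; pIC50 by curve fitting.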
row,Structure (SMILES),IC50 [nM]
1,"CN1CCCN(Cc2ccc(-c3cccc(-n4c(=O)n([C@H]5CC[C@@H](NC(=O)c6cnc7ccccc7n6)CC5)c(=O)c5cc(F)cnc54)c3)cc2)CC1 [Example 358, N-{cis-4-[6-fluoro-1-{4′-[(4-methyl-1,4-diazepan-1-yl)methyl]biphenyl-3-yl}-2,4-dioxo-1,4-dihydropyrido[2,3-d]pyrimidin-3(2H)-yl]cyclohexyl} quinoxaline-2-carboxamide]",0.0126
2,"CN1CCCN(Cc2ccc(-c3cccc(-n4c(=O)n([C@H]5CC[C@@H](NC(=O)c6cc7ccccc7cn6)CC5)c(=O)c5cc(F)cnc54)c3)cc2)CC1 [Example 359, N-{cis-4-[6-fluoro-1-{4′-[(4-methyl-1,4-diazepan-1-yl)methyl]biphenyl-3-yl}-2,4-dioxo-1,4-dihydropyrido[2,3-d]pyrimidin-3(2H)-yl]cyclohexyl} isoquinoline-3-carboxamide]",0.0251
3,"CN1CCCN(Cc2ccc(-c3cccc(-n4c(=O)n([C@H]5CC[C@@H](NC(=O)c6nc7ccccc7[nH]c6=O)CC5)c(=O)c5cc(F)cnc54)c3)cc2)CC1 [Example 360, N-{cis-4-[6-fluoro-1-{4′-[(4-methyl-1,4-diazepan-1-yl)methyl]biphenyl-3-yl}-2,4-dioxo-1,4-dihydropyrido[2,3-d]pyrimidin-3(2H)-yl]cyclohexyl}-3-oxo-3,4-dihydroquinoxaline-2-carboxamide]",0.0398
4,"Cc1cnc(C(=O)N[C@H]2CC[C@@H](n3c(=O)c4cc(F)cnc4n(-c4cccc(-c5ccc(CN6C[C@@H](C)N[C@@H](C)C6)cc5)c4)c3=O)CC2)cn1 [Example 361, N-{cis-4-[1-(4′-{[(3R,5S)-3,5-dimethylpiperazin-1-yl]methyl}biphenyl-3-yl)-6-fluoro-2,4-dioxo-1,4-dihydropyrido[2,3-d]pyrimidin-3(2H)-yl]cyclohexyl}-5-methylpyrazine-2-carboxamide]",0.2
5,"Cc1cc(C)n2nc(C(=O)N[C@H]3CC[C@@H](n4c(=O)c5cc(F)cnc5n(-c5cccc(-c6ccc(CN7CCC(N8CCCCC8)CC7)cc6)c5)c4=O)CC3)cc2n1 [Example 362, N-{cis-4-[1-[4′-(1,4′-bipiperidin-1′-ylmethyl)biphenyl-3-yl]-6-fluoro-2,4-dioxo-1,4-dihydropyrido[2,3-d]pyrimidin-3(2H)-yl]cyclohexyl}-5,7-dimethylpyrazolo[1,5-a]pyrimidine-2-carboxamide]",0.0501
6,"N[C@H]1CC[C@@H](n2c(=O)c3cc(F)cnc3n(-c3cccc(-c4ccc(O)cc4CN4CCNC(=O)CC4)c3)c2=O)CC1 [Example 369, 3-(cis-4-aminocyclohexyl)-6-fluoro-1-{4′-hydroxy-2′-[(5-oxo-1,4-diazepan-1-yl)methyl]biphenyl-3-yl}pyrido[2,3-d]pyrimidine-2,4(1H,3H)-dione]",6.31
7,"Cc1nc2ccccn2c1CN[C@H]1CC[C@@H](n2c(=O)c3cc(F)cnc3n(-c3cccc(-c4ccc(O)cc4CN4CCOCC4)c3)c2=O)CC1 [Example 370, 6-fluoro-1-[4′-hydroxy-2′-(morpholin-4-ylmethyl)biphenyl-3-yl]-3-(cis-4-{[(2-methylimidazo[1,2-a]pyridin-3-yl)methyl]amino}cyclohexyl)pyrido[2,3-d]pyrimidine-2,4(1H,3H)-dione]",0.501
8,"O=c1c2cc(F)cnc2n(-c2cccc(-c3ccc(O)cc3CN3CCCOCC3)c2)c(=O)n1[C@H]1CC[C@@H](NCc2ncc3ccccn23)CC1 [Example 371, 6-fluoro-1-[4′-hydroxy-2′-(1,4-oxazepan-4-ylmethyl)biphenyl-3-yl]-3-{cis-4-[(imidazo[1,5-a]pyridin-3-ylmethyl)amino]cyclohexyl}pyrido[2,3-d]pyrimidine-2,4(1H,3H)-dione]",0.398
9,"O=c1c2cc(F)cnc2n(-c2cccc(-c3ccc(O)cc3CN3CCCOCC3)c2)c(=O)n1[C@H]1CC[C@@H](NCc2cccn3ccnc23)CC1 [Example 372, 6-fluoro-1-[4′-hydroxy-2′-(1,4-oxazepan-4-ylmethyl)biphenyl-3-yl]-3-{cis-4-[(imidazo[1,2-a]pyridin-8-ylmethyl)amino]cyclohexyl}pyrido[2,3-d]pyrimidine-2,4(1H,3H)-dione]",0.631
10,"O=c1c2cc(F)cnc2n(-c2cccc(-c3ccc(O)cc3CN3CCOCC3)c2)c(=O)n1[C@H]1CC[C@@H](NCc2cccn3ccnc23)CC1 [Example 373, 6-fluoro-1-[4′-hydroxy-2′-(morpholin-4-ylmethyl)biphenyl-3-yl]-3-{cis-4-[(imidazo[1,2-a]pyridin-8-ylmethyl)amino]cyclohexyl} pyrido[2,3-d]pyrimidine-2,4(1H,3H)-dione]",0.158
11,"O=c1c2cc(F)cnc2n(-c2cccc(-c3ccc(O)cc3CN3CCOCC3)c2)c(=O)n1[C@H]1CC[C@@H](NCc2ncc3ccccn23)CC1 [Example 374, 6-fluoro-1-[4′-hydroxy-2′-(morpholin-4-ylmethyl)biphenyl-3-yl]-3-{cis-4-[(imidazo[1,5-a]pyridin-3-ylmethyl)amino]cyclohexyl}pyrido[2,3-d] pyrimidine-2,4(1H,3H)-dione]",0.0631
12,"O=C1CCN(Cc2cc(O)ccc2-c2cccc(-n3c(=O)n([C@H]4CC[C@@H](NCc5cn6cc(F)ccc6n5)CC4)c(=O)c4cc(F)cnc43)c2)CCN1 [Example 375, 6-fluoro-3-(cis-4-{[(6-fluoroimidazo[1,2-a]pyridin-2-yl)methyl]amino}cyclohexyl)-1-{4′-hydroxy-2′-[(5-oxo-1,4-diazepan-1-yl)methyl]biphenyl-3-yl}pyrido[2,3-d]pyrimidine-2,4(1H,3H)-dione]",0.0126
13,"O=CN1CCCN(Cc2cc(O)ccc2-c2cccc(-n3c(=O)n([C@H]4CC[C@@H](NCc5cn6cc(F)ccc6n5)CC4)c(=O)c4cc(F)cnc43)c2)CC1 [Example 376, 4-({3′-[6-fluoro-3-(cis-4-{[(6-fluoroimidazo[1,2-a]pyridin-2-yl)methyl]amino}cyclohexyl)-2,4-dioxo-3,4-dihydropyrido[2,3-d]pyrimidin-1(2H)-yl]-4-hydroxybiphenyl-2-yl}methyl)-1,4-diazepane-1-carbaldehyde]",0.0398
14,"O=C1CN(Cc2cc(O)ccc2-c2cccc(-n3c(=O)n([C@H]4CC[C@@H](NCc5cn6cc(F)ccc6n5)CC4)c(=O)c4cc(F)cnc43)c2)CCN1 [Example 377, 6-fluoro-3-(cis-4-{[(6-fluoroimidazo[1,2-a]pyridin-2-yl)methyl]amino}cyclohexyl)-1-{4′-hydroxy-2′-[(3-oxopiperazin-1-yl)methyl]biphenyl-3-yl}pyrido[2,3-d]pyrimidine-2,4(1H,3H)-dione]",0.0631
15,"CN(CC(=O)N(C)C)Cc1cc(O)ccc1-c1cccc(-n2c(=O)n([C@H]3CC[C@@H](NCc4cn5cc(F)ccc5n4)CC3)c(=O)c3cc(F)cnc32)c1 [Example 378, N~2~-({3′-[6-fluoro-3-(cis-4-{[(6-fluoroimidazo[1,2-a]pyridin-2-yl)methyl]amino}cyclohexyl)-2,4-dioxo-3,4-dihydropyrido[2,3-d]pyrimidin-1(2H)-yl]-4-hydroxybiphenyl-2-yl}methyl)-N,N,N~2~-trimethylglycinamide]",0.316
